Data as given in US20050282755A1, “Compositions having antimicrobial activity and uses thereof” (priority 2004, published 2005).
≈ marks a conversion by molar mass, not a printed value. Read-outs that look alike come from different tables or passages of the source. Non-standard residues stand in square brackets, D forms with d. Residues, ends and D or L forms follow the SMILES beside them. *: point of attachment. Stearoyl = CCCCCCCCCCCCCCCCCC(=O)*; Lauroyl = CCCCCCCCCCCC(=O)*

Key:
IL-12 release = test: Anti-inflammation assay: IL-12 release in PBMCs stimulated by P. acnes (IL-12p70 ELISA); type: cell-based, human; conditions: for reduction of IL-12 release in PBMs stimulated by P. acnes: 12.5 to 0.78 micrograms per milliliter; for IC50: PBMCs stimulated by P. acnes, over night, read-out: IC50 value, reduction of IL-12 release
Procedure: An assay that detected reductions in IL-12 released in whole human blood cells (PBMCs) was utilized to detect reductions in inflammation elicited by peptide compositions described herein. The assay utilized the following materials and reagents: whole human blood cells; P. acnes; peptides 55, 67 and 93 from Table 3; IL-12p70 ELISA kit (eBiosciences); RPMI 1640 growth medium; PBS; and a 96-well microtiter plate. PBMCs were prepared from whole human blood cells according to standard procedures and cells were resuspended in RPMI 1640 and 10% FCS. Cells were seeded at 250,000 cells per well in a 96-well microtiter plate and incubated for 90 minutes. […] Controls included untreated cells, P. acnes alone or a peptide alone. The cells were incubated over night at 37° C., and cell supernatants were collected and stored at −80° C. for use in an IL-12 ELISA assay (eBiosciences). A 1:1 dilution of supernatant was utilized to perform the IL-12 ELISA following the protocol provided by the manufacturer.

Salmonella dublin (Lane) [1] = test: MIC, NCCLS M7-A6 broth microdilution (Table 9, no superscript); type: cell-based
Outline: (§1)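 MIC determined by microdilution in cation-adjusted Mueller Hinton broth after overnight growth at 37° C, defined as the lowest peptide level lacking turbidity.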

[2] = tested on: Staphylococcus aureus ATCC 29213; test: MIC, NCCLS M7-A6 broth microdilution, cation-adjusted Mueller Hinton broth (Table 9, no superscript); type: cell-based; conditions: ATCC 29213
Outline: as §1

[3] = tested on: Staphylococcus aureus ATCC 29213; conditions: ATCC 29213, pH 7.4
[4] = tested on: Propionibacterium acnes ATCC 6919; type: cell-based
Outline: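 MIC by non-standard broth microdilution in reinforced Clostridial broth, log-phase P. acnes inoculum at 5×10^5 to 1×10^6 CFU/mL. Plates were held anaerobically 48–72 h at 37° C; MIC was the lowest peptide concentration with no visible turbidity relative to the no-peptide control.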

[5] = tested on: Pseudomonas aeruginosa ATCC 27853; test: MIC, NCCLS M7-A6 broth microdilution (Table 9, no superscript); type: cell-based; conditions: ATCC 27853
Outline: as §1

[6] = tested on: Staphylococcus epidermidis ATCC 12228; test: as above; type: cell-based; conditions: ATCC 12228
Outline: as §1

[7] = tested on: Escherichia coli ATCC 25922; test: as above; type: cell-based; conditions: ATCC 25922
Outline: as §1

Salmonella dublin (Lane) [8] = conditions: pH 7.4
[9] = tested on: Candida albicans ATCC 18804; test: MIC in yeasts, NCCLS M27-A2 broth microdilution, RPMI 1640 (Table 9, letter e); type: cell-based; conditions: ATCC 18804
Outline: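 Broth microdilution per NCCLS M27-A2 in RPMI 1640 with glutamine and phenol red, final inoculum 0.5×10^3–2.5×10^3 CFU/milliliter. Incubated 24 to 48 hours at 37° C; MIC is the lowest peptide concentration with no visible growth.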

HeLa cells = conditions: 16 h
Jurkat cells = type: cell-based; conditions: 16 h
Procedure: Toxicity of peptide compositions for mammalian cells was determined by using a metabolic viability assay. For this assay 4×10^5 HeLa cells were seeded per well into a microwell plate (50 microliters volume). Jurkat cells also were utilized in separate experiments. The cells were incubated for 16 hours at 37° C. under mammalian cell culture conditions. Two fold serial dilutions for each peptide were prepared and added to the cells (final volume 100 microliters) and incubated for 16 hours at 37° C. For each dilution series control wells containing cells without peptide were included. The metabolic activity and viability of the cells were determined by using a commercially available assay (CellTiter96 assay, Promega Corp.). According to manufacturer's protocol 20 microliters of CellTiter reagent was added to each well and incubated at 37° C. for 1-4 hours. The CellTiter assay is a commercial version of the MTT assay, which measures the conversion of a tetrazolium […] into a colored formazan salt in metabolically active cells. The formation of the formazan product can be measured at 470 nm and is generally accepted as a measure of cellular viability. The cells were incubated at 37° C. and monitored for color development. The conversion of CellTiter reagent was measured at 470 nm using a Versamax plate reader (Molecular Devices). The viability of peptide treated cells is expressed as IC50 (i.e., concentration that leads to a 50% reduction of viability relative to the untreated control). Table 7A reports IC50 values for HeLa cells cultured in OptiMEM or 10% FBS when contacted with peptide compositions from Table 3, and Table 7B reports IC50 values for HeLa cells or Jurkat cells contacted with peptide compositions from Table 3.

## CCCCCCCCCCCCCCCCCC(=O)N[C@H](C(=O)N[C@@H](CCCNC(=N)N)C(=O)N[C@H](C(=O)N[C@@H](CO)C(=O)N[C@@H](CCCNC(=N)N)C(=O)N[C@H](C(=O)NCC(=O)N[C@@H](CCCNC(=N)N)C(=O)N[C@@H](CO)C(=O)N[C@@H](CCCNC(=N)N)C(=O)N[C@@H](Cc1c[nH]c2ccccc12)C(=O)N[C@@H](CCCNC(=N)N)C(=O)N[C@@H](CC(=O)O)C(=O)N[C@@H](Cc1c[nH]c2ccccc12)C(=O)N[C@@H](CO)C(=O)N[C@@H](CCCNC(=N)N)C(=O)N[C@@H](CC(N)=O)C(=O)N[C@@H](Cc1ccccc1)C(=O)N[C@@H](CCSC)C(=O)N[C@@H](CCCNC(=N)N)C(N)=O)[C@@H](C)O)C(C)C)[C@@H](C)O [Peptide 67] (Stearoyl-TRVSRTGRSRWRDWSRNFMR-NH2)
IL-12 release
  reduction of IL-12 release in PBMs stimulated by P. acnes: dose response of reduction of IL-12 release
Salmonella dublin (Lane) [1]
  MIC S. dublin: 64 µg/mL (≈ 22.2 µM)
[2]
  MIC S. aureus: 64 µg/mL (≈ 22.2 µM)

## CSCC[C@@H](NC(=O)[C@@H](Cc1ccccc1)NC(=O)[C@@H](CC(N)=O)NC(=O)[C@@H](CCCNC(=N)N)NC(=O)[C@@H](CO)NC(=O)[C@@H](Cc1c[nH]c2ccccc12)NC(=O)[C@@H](CC(=O)O)NC(=O)[C@@H](CCCNC(=N)N)NC(=O)[C@@H](Cc1c[nH]c2ccccc12)NC(=O)[C@@H](CCCNC(=N)N)NC(=O)[C@@H](CO)NC(=O)[C@@H](CCCNC(=N)N)NC(=O)CNC(=O)[C@H](NC(=O)[C@@H](CCCNC(=N)N)NC(=O)[C@@H](CO)NC(=O)[C@H](NC(=O)[C@@H](CCCNC(=N)N)NC(=O)[C@H](NC(C)=O)[C@H](C)O)C(C)C)[C@H](C)O)C(=O)N[C@H](CCCNC(=N)N)C(=O)N[C@H](C)C(=O)N[C@H](C)C(=O)N[C@H](CCCCN)C(=O)N[C@H](CCCCN)C(=O)N[C@H](CCCCN)C(=O)N[C@H](CCCCN)C(=O)N[C@H](CCCCN)C(=O)N[C@H](CCCCN)C(=O)N[C@H](CCCCN)C(=O)N[C@H](CCCCN)C(N)=O [Peptide 31, Ac-trvsrtgrsrwrdwsrnfmraakkkkkkkk-NH2]
[3]
  MIC S. aureus: 3b ug/mL
[4]
  MIC P. acnes: 12.5 µg·days/mL
[5]
  MIC P. aeruginosa: >64 µg/mL
[6]
  MIC S. epidermidis: 8 µg/mL (≈ 2.09 µM)
[7]
  MIC E. coli: >64 µg/mL
Salmonella dublin (Lane) [8]
  MIC S. dublin: 6b ug/mL

## CSCC[C@@H](NC(=O)[C@@H](Cc1ccccc1)NC(=O)[C@@H](CC(N)=O)NC(=O)[C@@H](CCCNC(=N)N)NC(=O)[C@@H](CO)NC(=O)[C@@H](Cc1c[nH]c2ccccc12)NC(=O)[C@@H](CC(=O)O)NC(=O)[C@@H](CCCNC(=N)N)NC(=O)[C@@H](Cc1c[nH]c2ccccc12)NC(=O)[C@@H](CCCNC(=N)N)NC(=O)[C@@H](CO)NC(=O)[C@@H](CCCNC(=N)N)NC(C)=O)C(=O)N[C@H](CCCNC(=N)N)C(N)=O [Peptide 95, Ac-rsrwrdwsrnfmr-NH2] (Ac-[dR][dS][dR][dW][dR][dD][dW][dS][dR][dN][dF][dM][dR]-NH2)
[3]
  MIC S. aureus: 12.5b ug/mL
[4]
  MIC P. acnes: 12.5 µg·days/mL
[9]
  MIC C. albicans: 16e ug/mL
Salmonella dublin (Lane) [8]
  MIC S. dublin: 6b ug/mL

## CSCC[C@H](NC(=O)[C@H](Cc1ccccc1)NC(=O)[C@H](CC(N)=O)NC(=O)[C@H](CCCNC(=N)N)NC(=O)[C@H](C)NC(=O)[C@H](Cc1c[nH]c2ccccc12)NC(=O)[C@H](CC(=O)O)NC(=O)[C@H](CCCNC(=N)N)NC(=O)[C@H](Cc1c[nH]c2ccccc12)NC(=O)[C@H](CCCNC(=N)N)NC(=O)[C@H](CO)NC(=O)[C@H](CCCNC(=N)N)NC(=O)CNC(=O)[C@@H](NC(=O)[C@H](CCCNC(=N)N)NC(=O)[C@H](C)NC(=O)[C@@H](NC(=O)[C@H](CCCNC(=N)N)NC(=O)[C@@H](NC(C)=O)[C@@H](C)O)C(C)C)[C@@H](C)O)C(=O)N[C@@H](CCCNC(=N)N)C(N)=O [Peptide 37] (Ac-TRVARTGRSRWRDWARNFMR-NH2)
[3]
  MIC S. aureus: 25b ug/mL
[4]
  MIC P. acnes: 100 µg·days/mL
[5]
  MIC P. aeruginosa: >64 µg/mL
[6]
  MIC S. epidermidis: >64 µg/mL
[7]
  MIC E. coli: >64 µg/mL
[9]
  MIC C. albicans: 64e ug/mL
Salmonella dublin (Lane) [8]
  MIC S. dublin: 25b ug/mL

## CCCCCCCCCCCC(=O)N[C@@H](CCCNC(=N)N)C(=O)N[C@@H](CO)C(=O)N[C@@H](CCCNC(=N)N)C(=O)N[C@@H](Cc1c[nH]c2ccccc12)C(=O)N[C@@H](CCCNC(=N)N)C(=O)N[C@@H](CC(=O)O)C(=O)N[C@H](C(=O)N[C@@H](C)C(=O)N[C@@H](CCCNC(=N)N)C(=O)N[C@@H](CC(N)=O)C(=O)N[C@@H](Cc1ccccc1)C(=O)N[C@@H](CCSC)C(=O)N[C@@H](CCCNC(=N)N)C(N)=O)C(C)C [Peptide 88, Lauryl-RSRWRDVARNFMR-NH2] (Lauroyl-RSRWRDVARNFMR-NH2)
[3]
  MIC S. aureus: 3b ug/mL
[4]
  MIC P. acnes: 25 µg·days/mL
[9]
  MIC C. albicans: 32e ug/mL
Salmonella dublin (Lane) [8]
  MIC S. dublin: 3b ug/mL

## CSCC[C@H](NC(=O)[C@H](Cc1ccccc1)NC(=O)[C@H](CC(N)=O)NC(=O)[C@H](CCCNC(=N)N)NC(=O)[C@H](CO)NC(=O)[C@@H](NC(=O)[C@H](CC(=O)O)NC(=O)[C@H](CCCNC(=N)N)NC(=O)[C@H](Cc1c[nH]c2ccccc12)NC(=O)[C@H](CCCNC(=N)N)NC(=O)[C@H](CO)NC(=O)[C@H](CCCNC(=N)N)NC(C)=O)C(C)C)C(=O)N[C@@H](CCCNC(=N)N)C(N)=O [Peptide 93, Ac-RSRWRDVSRNFMR-NH2] (Ac-RSRWRDVSRNFMR-NH2)
IL-12 release
  reduction of IL-12 release in PBMs stimulated by P. acnes: dose response of reduction of IL-12 release
  IC50: 0.8 µM
[5]
  MIC P. aeruginosa: >64 µg/mL
[6]
  MIC S. epidermidis: >64 µg/mL
Salmonella dublin (Lane) [1]
  MIC S. dublin: >64 µg/mL
[7]
  MIC E. coli: >64 µg/mL
[2]
  MIC S. aureus: >64 µg/mL

## H2N-kkkkkkkkaatrvartgrsrwrdvarnfmr-NH2 (KKKKKKKKAATRVARTGRSRWRDVARNFMR; N-terminal amine, C-terminal amide) [Peptide 55]
IL-12 release
  IC50: > 20 µM

## CSCC[C@H](NC(=O)[C@H](Cc1ccccc1)NC(=O)[C@H](CC(N)=O)NC(=O)[C@H](CCCNC(=N)N)NC(=O)[C@H](CO)NC(=O)[C@H](Cc1c[nH]c2ccccc12)NC(=O)[C@H](CC(=O)O)NC(=O)[C@H](CCCNC(=N)N)NC(=O)[C@H](Cc1c[nH]c2ccccc12)NC(=O)[C@H](CCCNC(=N)N)NC(=O)[C@H](CO)NC(=O)[C@H](CCCNC(=N)N)NC(=O)CNC(=O)[C@@H](NC(=O)[C@H](CCCNC(=N)N)NC(=O)[C@H](CO)NC(=O)[C@@H](NC(=O)[C@H](CCCNC(=N)N)NC(=O)[C@@H](NC(C)=O)[C@@H](C)O)C(C)C)[C@@H](C)O)C(=O)N[C@@H](CCCNC(=N)N)C(=O)N[C@@H](C)C(=O)N[C@@H](C)C(N)=O [Peptide 1]
HeLa cells
  IC50: > 100 µM
Jurkat cells
  IC50: > 100 µM
